From ChEMBL document CHEMBL1144154, “7-[1H-Indol-2-yl]-2,3-dihydro-isoindol-1-ones as dual Aurora-A/VEGF-R2 kinase inhibitors: design, synthesis, and biological activity” (Bioorg Med Chem Lett, 2008)
Active and inactive are the calls of the source. The calls are words filed in the database; no cut-off is given here.

Tests used:
[1] = target: T1, Vascular endothelial growth factor receptor 2 (Homo sapiens, UniProt P35968); assay: Inhibition of VEGFR2 at 100 uM
[2] = target: T2, Cyclin-dependent kinase 1 (Homo sapiens, UniProt P06493); assay: Inhibition of CDK1 at 100 uM
Target sequence in this assay (P06493 whole entry, looked up): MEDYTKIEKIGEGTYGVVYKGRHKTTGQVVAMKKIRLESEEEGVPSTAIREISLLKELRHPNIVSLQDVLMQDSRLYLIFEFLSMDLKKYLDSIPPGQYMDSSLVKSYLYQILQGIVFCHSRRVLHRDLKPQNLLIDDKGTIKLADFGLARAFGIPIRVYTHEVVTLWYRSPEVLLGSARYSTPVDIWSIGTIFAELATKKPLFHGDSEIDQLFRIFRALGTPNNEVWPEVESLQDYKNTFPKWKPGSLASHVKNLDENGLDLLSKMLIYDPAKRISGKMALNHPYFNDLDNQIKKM

[3] = target: T3, Aurora kinase A (Homo sapiens) (UniProt O14965); assay: Inhibition of Aurora A at 100 uM
T3 sequence (whole entry): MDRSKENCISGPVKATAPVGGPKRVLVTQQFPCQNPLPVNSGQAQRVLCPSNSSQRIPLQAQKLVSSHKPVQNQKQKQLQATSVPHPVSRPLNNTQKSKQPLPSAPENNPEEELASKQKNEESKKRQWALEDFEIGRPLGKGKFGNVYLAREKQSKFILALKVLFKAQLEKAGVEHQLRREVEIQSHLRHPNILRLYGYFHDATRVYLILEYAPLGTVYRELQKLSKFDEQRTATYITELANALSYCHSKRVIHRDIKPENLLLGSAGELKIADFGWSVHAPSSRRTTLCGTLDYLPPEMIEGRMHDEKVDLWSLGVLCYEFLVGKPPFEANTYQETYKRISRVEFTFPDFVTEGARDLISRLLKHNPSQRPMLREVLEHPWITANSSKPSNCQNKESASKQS

[4] = target: T2, Cyclin-dependent kinase 1; assay: Inhibition of CDK1
Target sequence in this assay (P06493 whole entry): as the sequence (P06493 whole entry, looked up) above

[5] = target: T1, Vascular endothelial growth factor receptor 2; assay: Inhibition of VEGFR2
[6] = target: T4, Aurora kinase A (Homo sapiens, UniProt O14965); assay: Inhibition of Aurora A
T4 sequence (O14965 whole entry): T3 sequence (whole entry)

[7] = Cmax in rat at 10 mg/kg, po; assay type: ADME, organism-based; design: dose 10 mg/kg, route oral; details: in vivo
[8] = Half life in rat at 10 mg/kg, po; assay type: ADME, organism-based; design: dose 10 mg/kg, route oral; details: in vivo
[9] = Drug concentration in nude mouse plasma at 10 mg/kg after 4 hrs; assay type: ADME, organism-based; design: dose 10 mg/kg
[10] = Oral bioavailability in rat at 10 mg/kg; assay type: ADME, organism-based; details: in vivo
[11] = Drug concentration in nude mouse plasma at 10 mg/kg after 2 hrs; assay type: ADME, organism-based; design: dose 10 mg/kg
[12] = test system: A-375; assay: Antitumor activity in human A375 cells […] nude mouse assessed as inhibition of tumor growth at 100 mg/kg, ip relative to control; assay type: functional; design: scale not given: the % may be the effect or the level left; details: route intraperitoneal
[13] = Drug concentration in nude mouse plasma at 10 mg/kg after 1 hr; assay type: ADME, organism-based; design: dose 10 mg/kg
[14] = test system: HeLa; assay: Induction of polyploidy in human HeLa cells assessed as increase in cells with >4N DNA content at 2.5 uM after 72 hrs by FACS analysis
[15] = Drug concentration in nude mouse plasma at 10 mg/kg after 0.5 hrs; assay type: ADME, organism-based; design: dose 10 mg/kg
[16] = target: T1, Vascular endothelial growth factor receptor 2; assay: Inhibition of VEGFR2 at 0.1 uM

T1 sequence (P35968 whole entry): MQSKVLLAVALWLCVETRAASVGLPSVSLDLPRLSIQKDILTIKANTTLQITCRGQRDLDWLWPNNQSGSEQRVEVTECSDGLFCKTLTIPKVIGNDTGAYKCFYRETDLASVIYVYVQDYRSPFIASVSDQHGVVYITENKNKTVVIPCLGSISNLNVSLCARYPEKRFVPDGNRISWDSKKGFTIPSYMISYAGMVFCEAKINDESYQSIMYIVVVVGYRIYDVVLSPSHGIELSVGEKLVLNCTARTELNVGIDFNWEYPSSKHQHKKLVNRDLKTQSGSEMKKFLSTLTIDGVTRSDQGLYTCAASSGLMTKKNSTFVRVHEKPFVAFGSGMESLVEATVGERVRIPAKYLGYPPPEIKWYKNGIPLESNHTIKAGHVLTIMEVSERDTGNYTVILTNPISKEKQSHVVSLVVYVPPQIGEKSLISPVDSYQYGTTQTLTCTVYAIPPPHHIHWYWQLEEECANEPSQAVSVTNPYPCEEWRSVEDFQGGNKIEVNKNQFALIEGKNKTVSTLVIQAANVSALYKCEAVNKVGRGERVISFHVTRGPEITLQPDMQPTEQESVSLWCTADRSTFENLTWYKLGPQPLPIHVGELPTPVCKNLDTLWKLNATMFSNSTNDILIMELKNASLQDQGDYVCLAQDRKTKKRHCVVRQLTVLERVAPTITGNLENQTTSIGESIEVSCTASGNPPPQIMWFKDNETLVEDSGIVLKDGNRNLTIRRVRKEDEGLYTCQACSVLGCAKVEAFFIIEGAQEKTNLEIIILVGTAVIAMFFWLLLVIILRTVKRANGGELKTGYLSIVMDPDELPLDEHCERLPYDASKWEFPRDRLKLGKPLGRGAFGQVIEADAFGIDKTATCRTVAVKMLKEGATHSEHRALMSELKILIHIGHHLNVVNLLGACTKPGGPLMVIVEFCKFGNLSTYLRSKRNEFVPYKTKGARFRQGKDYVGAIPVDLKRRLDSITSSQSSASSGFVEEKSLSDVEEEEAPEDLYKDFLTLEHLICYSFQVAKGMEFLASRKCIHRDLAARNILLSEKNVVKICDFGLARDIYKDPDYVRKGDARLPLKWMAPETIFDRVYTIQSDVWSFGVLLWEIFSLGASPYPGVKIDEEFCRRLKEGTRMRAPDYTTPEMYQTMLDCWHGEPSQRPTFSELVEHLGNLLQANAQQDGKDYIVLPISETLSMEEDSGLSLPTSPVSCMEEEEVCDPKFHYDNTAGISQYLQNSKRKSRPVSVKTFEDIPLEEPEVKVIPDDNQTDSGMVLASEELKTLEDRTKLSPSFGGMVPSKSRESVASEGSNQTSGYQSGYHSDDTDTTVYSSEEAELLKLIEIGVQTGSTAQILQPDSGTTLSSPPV

Row | SMILES | IC50 [4] | IC50 [5] | IC50 [6] | other results
1 | CC(C)(C)OC(=O)n1cccc1-c1cccc2c1C(=O)NC2 |  |  |  | inhibition [1]: 46%; inhibition [2]: < 10%; inhibition [3]: 25%
2 | O=C1NCc2cccc(-c3cc4ccccc4[nH]3)c21 | > 100 µM | 144 nM | 100 nM | 
3 | COc1ccc2[nH]c(-c3cccc4c3C(=O)NC4)nc2c1 |  | 142 nM | 205 nM | 
4 | CN1Cc2cccc(-c3ccc[nH]3)c2C1=O |  |  |  | inhibition [1]: < 10%; inhibition [2]: 24%; inhibition [3]: 37%
5 | O=C1NCc2cccc(-c3c[nH]c4ccccc34)c21 |  |  |  | inhibition [1]: 50%; inhibition [3]: 60%
6 | NC(=O)c1cccc2c1C(=O)NC2 |  | > 100000 nM | 14300 nM | 
7 | O=C1NCc2cccc(-c3cc4cc(OCc5ccccc5)ccc4[nH]3)c21 | > 100 µM | 11300 nM | 21200 nM | 
8 | COc1ccc2[nH]c(-c3cccc4c3C(=O)NC4=O)cc2c1 |  |  |  | inhibition [16]: 35%; inhibition [3]: 30%
9 | O=C1NCc2cccc(-c3ccc[nH]3)c21 |  | 1100 nM | 338 nM | inhibition [2]: 63%
10 | COc1ccc(NC(=O)c2cccc3c2C(=O)NC3)cc1 |  | 5940 nM |  | inhibition [3]: 45%
11 | O=C(O)c1cccc2c1C(=O)NC2 |  | > 100000 nM | > 100000 nM | 
12 | COC(=O)c1cccc2c1C(=O)NC2 |  | > 100000 nM | > 100000 nM | 
13 | CN1Cc2cccc(-c3cccn3C(=O)OC(C)(C)C)c2C1=O | > 100 µM | > 100000 nM | > 100000 nM | 

The remaining compounds from weak to strong by IC50 [5], led by results:

Row | IC50 [4] | IC50 [5] | IC50 [6] | SMILES | other results
14 | 13.3 µM | 119 nM | 90 nM | O=C1NCc2cccc(-c3cc4cc(O)ccc4[nH]3)c21 | 
15 | > 100 µM | 74 nM | 135 nM | O=C1NCc2cccc(-c3cc4cc(OCCN5CCOCC5)ccc4[nH]3)c21 | 
16 | > 100 µM | 65 nM | 179 nM | O=C1NCc2cccc(-c3cc4cc(OCCCN5CCCCC5)ccc4[nH]3)c21 | 
17 | > 100 µM | 56 nM | 200 nM | O=C1NCc2cccc(-c3cc4cc(OCCN5CCCCC5)ccc4[nH]3)c21 | Cmax [7]: 391 ng/mL; half-life [8]: 54 min; concentration at 4 h [9]: 12 ng/mL; bioavailability [10]: 20%; concentration at 2 h [11]: 41 ng/mL; Activity [12]: 46%; concentration at 1 h [13]: 160 ng/mL; Activity [14]: Active; concentration at 0.5 h [15]: 154 ng/mL
18 | > 100 µM | 30 nM | 100 nM | O=C1NCc2cccc(-c3cc4cc(OCCCO)ccc4[nH]3)c21 | 
19 | > 100 µM | 18 nM | 61 nM | O=C1NCc2cccc(-c3cc4cc(OCCCN5CCC(O)CC5)ccc4[nH]3)c21 | 
20 | > 100 µM | 14 nM | 44 nM | CCN1CCN(CCCOc2ccc3[nH]c(-c4cccc5c4C(=O)NC5)cc3c2)CC1 | 
